Reference: patent publication US20200024278A1, “COMPOSITION COMPRISING ANTIBIOTIC COMPOUND AND AN HETEROCYCLIC COMPOUND AND THEIR USE IN PREVENTING OR TREATING BACTERIAL INFECTIONS” (MUTABILIS, priority 2016, published 2020)

How the values were obtained:
Assay in all cases: MIC, broth microdilution (CLSI), substance alone or ATB combined with compound at 4 or 8 μg/mL
ECO 190317 = format: cell-based, E. coli; conditions: ECO 190317; for MIC ATB combined with Example: Example @8 μg/ml
Method in brief: (§1)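 CLSI broth microdilution in cation-adjusted Mueller-Hinton broth, 5·10^5 CFU/mL log-phase inoculum, 16-20 h at 35 °C in ambient air. Fosfomycin assays supplemented with 25 μg/ml glucose-6-phosphate.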

ECO UFR39 = format: cell-based, E. coli; conditions: ECO UFR39; for MIC ATB combined with Example: Example @8 μg/ml; for MIC ATB combined with Example compound: compound @8 μg/ml
Method in brief: as §1

KPN 6299 = format: cell-based, K. pneumoniae; conditions: for MIC ATB combined with Example: Example @8 μg/ml
Method in brief: as §1

KPN BAA-1898 = format: cell-based, K. pneumoniae; conditions: KPN BAA-1898; for MIC ATB combined with Example: Example @8 μg/ml
Method in brief: as §1

KPN UFR42 = format: cell-based, K. pneumoniae; conditions: KPN UFR42; for MIC ATB combined with Example: Example @8 μg/ml; for MIC ATB combined with Example compound: compound @8 μg/ml
Method in brief: as §1

ECL P99 = format: cell-based, E. cloacae; conditions: ECL P99; for MIC ATB combined with Example: Example @8 μg/ml
Method in brief: as §1

PAE 105250 = format: cell-based, P. aeruginosa; conditions: PAE 105250; for MIC ATB combined with Example: Example @8 μg/ml; for MIC ATB combined with Example compound: compound @8 μg/ml
Method in brief: as §1

PAE UFR48 = format: cell-based, P. aeruginosa; conditions: PAE UFR48; for MIC ATB combined with Example: Example @8 μg/ml; for MIC ATB combined with Example compound: compound @8 μg/ml
Method in brief: as §1

PAE UFR90 = format: cell-based, P. aeruginosa; conditions: PAE UFR90; for MIC ATB combined with Example: Example @8 μg/ml; for MIC ATB combined with Example compound: compound @8 μg/ml
Method in brief: as §1

SAU 29213 = format: cell-based, S. aureus; conditions: for MIC ATB combined with Example / MIC ATB combined with Example compound: SAU 29213; for MIC ATB combined with Example: Example @8 μg/ml; for MIC ATB combined with Example compound: compound @8 μg/ml
Method in brief: as §1

SPN 49619 = format: cell-based, S. pneumoniae; conditions: SPN 49619; for MIC ATB combined with Example: Example @8 μg/ml; for MIC ATB combined with Example compound: compound @8 μg/ml
Method in brief: as §1

[1] = Escherichia coli, substance alone, read-out: MIC

SMILES: O=C1N2CC(n3cncn3)=CC(C2)N1OS(=O)(=O)[O-].[Na+] (stereo not shown) [Example 14, sodium [7-oxo-3-(1,2,4-triazol-1-yl)-1,6-diazabicyclo[3.2.1]oct-3-en-6-yl] sulfate]
- MIC ATB combined with Example (ECO 190317; ATB ATM): <0.031 µg/mL
- MIC ATB combined with Example (ECO 190317; ATB FEP): <0.031 µg/mL
- MIC ATB combined with Example (ECO 190317; ATB FOS): <0.125 µg/mL
- MIC ATB combined with Example (ECO 190317; ATB MEM): <0.031 µg/mL
- MIC ATB combined with Example (ECO 190317; ATB PIP): <0.031 µg/mL
- MIC (ECO 190317; [1]): 1 µg/mL
- MIC ATB combined with Example compound (ECO 190317; MIC of CIP, compound @8 μg/ml): <0.031 µg/mL
- MIC ATB combined with Example (ECO UFR39; ATB ATM): <0.031 µg/mL
- MIC ATB combined with Example (ECO UFR39; ATB FEP): <0.031 µg/mL
- MIC ATB combined with Example (ECO UFR39; ATB FOS): <0.125 µg/mL
- MIC ATB combined with Example (ECO UFR39; ATB MEM): <0.031 µg/mL
- MIC ATB combined with Example (ECO UFR39; ATB PIP): <0.031 µg/mL
- MIC (ECO UFR39; [1]): 2 µg/mL
- MIC ATB combined with Example compound (ECO UFR39; MIC of CIP): <0.031 µg/mL
- MIC ATB combined with Example compound (ECO UFR39; MIC of CPO): <0.031 µg/mL
- MIC ATB combined with Example (KPN 6299; ATB ATM): <0.031 µg/mL
- MIC ATB combined with Example (KPN 6299; ATB FEP): <0.031 µg/mL
- MIC ATB combined with Example (KPN 6299; ATB FOS): <0.125 µg/mL
- MIC ATB combined with Example (KPN 6299; ATB MEM): <0.031 µg/mL
- MIC ATB combined with Example (KPN 6299; ATB PIP): <0.031 µg/mL
- MIC ATB combined with Example compound (KPN 6299; MIC of CIP, compound @8 μg/ml): <0.031 µg/mL
- MIC ATB combined with Example (KPN BAA-1898; ATB ATM): <0.031 µg/mL
- MIC ATB combined with Example (KPN BAA-1898; ATB FEP): <0.031 µg/mL
- MIC ATB combined with Example (KPN BAA-1898; ATB FOS): <0.125 µg/mL
- MIC ATB combined with Example (KPN BAA-1898; ATB MEM): <0.031 µg/mL
- MIC ATB combined with Example (KPN BAA-1898; ATB PIP): <0.031 µg/mL
- MIC (KPN BAA-1898; Klebsiella pneumoniae, BAA1898, substance alone, read-out: MIC): 4 µg/mL
- MIC ATB combined with Example compound (KPN BAA-1898; MIC of CIP, compound @8 μg/ml): <0.031 µg/mL
- MIC ATB combined with Example (KPN UFR42; ATB ATM): <0.031 µg/mL
- MIC ATB combined with Example (KPN UFR42; ATB FEP): <0.031 µg/mL
- MIC ATB combined with Example (KPN UFR42; ATB FOS): <0.125 µg/mL
- MIC ATB combined with Example (KPN UFR42; ATB MEM): <0.031 µg/mL
- MIC ATB combined with Example (KPN UFR42; ATB PIP): <0.031 µg/mL
- MIC (KPN UFR42; Klebsiella pneumoniae, substance alone, read-out: MIC): 8 µg/mL
- MIC ATB combined with Example compound (KPN UFR42; MIC of CIP): <0.031 µg/mL
- MIC ATB combined with Example compound (KPN UFR42; MIC of CPO): <0.031 µg/mL
- MIC ATB combined with Example (ECL P99; ATB ATM): <0.031 µg/mL
- MIC ATB combined with Example (ECL P99; ATB FEP): <0.031 µg/mL
- MIC ATB combined with Example (ECL P99; ATB FOS): <0.125 µg/mL
- MIC ATB combined with Example (ECL P99; ATB MEM): <0.031 µg/mL
- MIC ATB combined with Example (ECL P99; ATB PIP): <0.031 µg/mL
- MIC (ECL P99; Enterobacter cloacae, substance alone, read-out: MIC): 4 µg/mL
- MIC ATB combined with Example compound (ECL P99; MIC of CIP, compound @8 μg/ml): <0.031 µg/mL
- MIC ATB combined with Example (PAE 105250; ATB ATM): 8 µg/mL
- MIC ATB combined with Example (PAE 105250; ATB FEP): 4 µg/mL
- MIC ATB combined with Example (PAE 105250; ATB FOS): >128 µg/mL
- MIC ATB combined with Example (PAE 105250; ATB MEM): 2 µg/mL
- MIC ATB combined with Example (PAE 105250; ATB PIP): 32 µg/mL
- MIC ATB combined with Example compound (PAE 105250; MIC of CIP): 0.125 µg/mL
- MIC ATB combined with Example compound (PAE 105250; MIC of CPO): 8 µg/mL
- MIC ATB combined with Example (PAE UFR48; ATB ATM): 8 µg/mL
- MIC ATB combined with Example (PAE UFR48; ATB FEP): 16 µg/mL
- MIC ATB combined with Example (PAE UFR48; ATB FOS): 32 µg/mL
- MIC ATB combined with Example (PAE UFR48; ATB MEM): 0.25 µg/mL
- MIC ATB combined with Example (PAE UFR48; ATB PIP): 16 µg/mL
- MIC ATB combined with Example compound (PAE UFR48; MIC of CIP): 4 µg/mL
- MIC ATB combined with Example compound (PAE UFR48; MIC of CPO): >32 µg/mL
- MIC ATB combined with Example (PAE UFR90; ATB ATM): 16 µg/mL
- MIC ATB combined with Example (PAE UFR90; ATB FEP): 4 µg/mL
- MIC ATB combined with Example (PAE UFR90; ATB FOS): 8 µg/mL
- MIC ATB combined with Example (PAE UFR90; ATB MEM): 2 µg/mL
- MIC ATB combined with Example (PAE UFR90; ATB PIP): >32 µg/mL
- MIC ATB combined with Example compound (PAE UFR90; MIC of CIP): 1 µg/mL
- MIC ATB combined with Example compound (PAE UFR90; MIC of CPO): 8 µg/mL
- MIC ATB combined with Example (SAU 29213; ATB ATM): <0.031 µg/mL
- MIC ATB combined with Example (SAU 29213; ATB FEP): <0.031 µg/mL
- MIC ATB combined with Example (SAU 29213; ATB FOS): <0.125 µg/mL
- MIC ATB combined with Example (SAU 29213; ATB MEM): <0.031 µg/mL
- MIC ATB combined with Example (SAU 29213; ATB PIP): <0.031 µg/mL
- MIC ATB combined with Example compound (SAU 29213; MIC of CIP): <31 ng/mL
- MIC ATB combined with Example compound (SAU 29213; MIC of CLI): <1 ng/mL
- MIC ATB combined with Example compound (SAU 29213; MIC of CPO): <31 ng/mL
- MIC ATB combined with Example compound (SAU 29213; MIC of DAP): <2 ng/mL
- MIC ATB combined with Example compound (SAU 29213; MIC of ERY): <2 ng/mL
- MIC ATB combined with Example compound (SAU 29213; MIC of LZD): <7.8 ng/mL
- MIC ATB combined with Example compound (SAU 29213; MIC of RIF): <0.12 ng/mL
- MIC ATB combined with Example compound (SAU 29213; MIC of SYN): <2 ng/mL
- MIC ATB combined with Example compound (SAU 29213; MIC of VAN): <3.9 ng/mL
- MIC (SAU 29213; Staphylococcus aureus, substance alone, SAU 29213 (MSSA 29213), read-out: MIC): 4 µg/mL
- MIC ATB combined with Example (SPN 49619; ATB ATM): <0.031 µg/mL
- MIC ATB combined with Example (SPN 49619; ATB FEP): <=0.031 μg/mL
- MIC ATB combined with Example (SPN 49619; ATB FOS): 0.5 µg/mL
- MIC ATB combined with Example (SPN 49619; ATB MEM): <0.031 µg/mL
- MIC ATB combined with Example (SPN 49619; ATB PIP): 0.063 µg/mL
- MIC ATB combined with Example compound (SPN 49619; MIC of CIP): 31 ng/mL
- MIC ATB combined with Example compound (SPN 49619; MIC of CLI): <1 ng/mL
- MIC ATB combined with Example compound (SPN 49619; MIC of CPO): <31 ng/mL
- MIC ATB combined with Example compound (SPN 49619; MIC of DAP): <=0.0020 μg/mL
- MIC ATB combined with Example compound (SPN 49619; MIC of ERY): <2 ng/mL
- MIC ATB combined with Example compound (SPN 49619; MIC of LZD): <7.8 ng/mL
- MIC ATB combined with Example compound (SPN 49619; MIC of RIF): <=0.00012 μg/mL
- MIC ATB combined with Example compound (SPN 49619; MIC of SYN): <=0.0020 μg/mL
- MIC ATB combined with Example compound (SPN 49619; MIC of VAN): <3.9 ng/mL
- MIC (SPN 49619; Streptococcus pneumoniae, substance alone, read-out: MIC): 8 µg/mL
